Experimental data taken from ChEMBL document CHEMBL1201862, “PubChem BioAssay data set” (2004).
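Interpolation was linear, between the two tested concentrations surrounding the appropriate level; five concentrations were tested over 48 hours in 96-well plates. GI50 marks 50% less growth.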 The source made the active and inactive calls. No stated cut-off is given here; in the data, active = GI50 up to about 1.1 µM and inactive = higher.

Tests used:
Assay in all cases: growth of human tumour cells (NCI), 48 h
A549 = system: A549
DMS-114 = system: DMS-114
HCT-116 = system: HCT-116
HCT-15 = system: HCT-15
HL-60 = system: HL-60
Hs-578T = system: Hs-578T
KM12 = system: KM12
LXFL 529 = system: LXFL 529
M19-MEL = system: M19-MEL
MDA-MB-435 = system: MDA-MB-435
NCI-H23 = system: NCI-H23
NCI/ADR-RES = system: NCI/ADR-RES
SF-295 = system: SF-295
SF-539 = system: SF-539
SN12C = system: SN12C
SNB-19 = system: SNB-19
T47D = system: T47D
TK-10 = system: TK-10
U-251 = system: U-251
UACC-62 = system: UACC-62

SMILES | GI50 (A549) | GI50 (DMS-114) | GI50 (HCT-116) | GI50 (HCT-15) [µM] | GI50 (HL-60) | GI50 (Hs-578T) | GI50 (KM12) | GI50 (LXFL 529) | GI50 (M19-MEL) | GI50 (MDA-MB-435) | GI50 (NCI-H23) | GI50 (NCI/ADR-RES) | GI50 (SF-295) | GI50 (SF-539) | GI50 (SN12C) | GI50 (SNB-19) | GI50 (T47D) | GI50 (TK-10) | GI50 (U-251) | GI50 (UACC-62)
Cc1ccc(C(=O)Nc2ccc(S(=O)(=O)O)c3cc(S(=O)(=O)O)cc(S(=O)(=O)O)c23)cc1NC(=O)c1cccc(NC(=O)Nc2cccc(C(=O)Nc3cc(C(=O)Nc4ccc(S(=O)(=O)O)c5cc(S(=O)(=O)O)cc(S(=O)(=O)O)c45)ccc3C)c2)c1 [SURAMIN] | 56.4 µM (inactive) | 28.6 µM (inactive) | 76 µM (inactive) | 90.8 | 49.4 µM (inactive) | > 100 µM (inactive) | > 67.5 µM (inactive) | > 100 µM (inactive) | 59.7 µM (inactive) | > 100 µM (inactive) | 68.9 µM (inactive) | > 100 µM (inactive) | 69 µM (inactive) | > 100 µM (inactive) | > 80.9 µM (inactive) | > 100 µM (inactive) | > 100 µM (inactive) | 32 µM (inactive) | 77.3 µM (inactive) | 54.6 µM (inactive)
CSc1ccc2c(cc1=O)C(NC(=O)c1ccc(C#N)cc1)CCc1cc(O)c(O)c(O)c1-2 (stereo not drawn) | 44.4 µM (inactive) | 14.8 µM (inactive) | 18.4 µM (inactive) | 19 | 20.1 µM (inactive) | – | 33.7 µM (inactive) | 19.8 µM (inactive) | 11.9 µM (inactive) | – | 27.6 µM (inactive) | – | 27.2 µM (inactive) | 15.5 µM (inactive) | 19.8 µM (inactive) | 41.9 µM (inactive) | – | 63 µM (inactive) | 19.5 µM (inactive) | 19.3 µM (inactive)
Cc1ccc(C)c(NC(=O)CC2SC(Nc3ccccc3Cl)=NC2=O)c1 (stereo not drawn) | 65.3 µM (inactive) | 29.9 µM (inactive) | > 100 µM (inactive) | > 100 | 32.3 µM (inactive) | – | > 100 µM (inactive) | 74.3 µM (inactive) | 94.4 µM (inactive) | – | 43 µM (inactive) | – | 72.6 µM (inactive) | > 100 µM (inactive) | > 100 µM (inactive) | > 100 µM (inactive) | – | > 100 µM (inactive) | > 100 µM (inactive) | 49.3 µM (inactive)
Cc1ccccc1-n1c(C)nc(-c2ccccc2)cc1=O | > 100 µM (inactive) | > 100 µM (inactive) | > 100 µM (inactive) | > 100 | > 100 µM (inactive) | – | > 100 µM (inactive) | > 100 µM (inactive) | > 100 µM (inactive) | – | > 100 µM (inactive) | – | > 100 µM (inactive) | > 100 µM (inactive) | > 100 µM (inactive) | > 100 µM (inactive) | – | > 100 µM (inactive) | > 100 µM (inactive) | > 100 µM (inactive)
CSc1nc(NC2OCC(OC(C)=O)C(OC(C)=O)C2OC(C)=O)c(/N=C(\C)C(C)=O)c(=O)n1C (stereo not drawn) | > 100 µM (inactive) | > 100 µM (inactive) | > 100 µM (inactive) | > 100 | > 100 µM (inactive) | – | > 100 µM (inactive) | > 100 µM (inactive) | > 100 µM (inactive) | – | > 100 µM (inactive) | – | > 100 µM (inactive) | > 100 µM (inactive) | > 100 µM (inactive) | > 100 µM (inactive) | – | > 100 µM (inactive) | > 100 µM (inactive) | > 100 µM (inactive)
COc1cc(-c2nnc3n2NC=C(C(=O)O)S3)cc(OC)c1OC | > 100 µM (inactive) | > 56.5 µM (inactive) | > 55.1 µM (inactive) | > 54.5 | > 61.4 µM (inactive) | – | > 95.1 µM (inactive) | > 71.6 µM (inactive) | > 69.3 µM (inactive) | – | > 100 µM (inactive) | – | > 100 µM (inactive) | > 42.8 µM (inactive) | > 93.1 µM (inactive) | > 100 µM (inactive) | – | > 100 µM (inactive) | > 68.2 µM (inactive) | > 93.5 µM (inactive)
CCCN1C(=O)CNC(=O)c2[nH]cnc21 | > 100 µM (inactive) | > 100 µM (inactive) | > 100 µM (inactive) | > 100 | > 100 µM (inactive) | – | > 100 µM (inactive) | > 100 µM (inactive) | > 100 µM (inactive) | – | > 100 µM (inactive) | – | > 100 µM (inactive) | > 100 µM (inactive) | > 100 µM (inactive) | > 100 µM (inactive) | – | > 100 µM (inactive) | > 100 µM (inactive) | 48.3 µM (inactive)
COc1cc2ccc3c4cc(OC)c(OC(C)C)cc4c[n+](C)c3c2cc1OC | > 100 µM (inactive) | 9.64 µM (inactive) | > 100 µM (inactive) | > 100 | 35.1 µM (inactive) | – | > 100 µM (inactive) | 14.2 µM (inactive) | 29 µM (inactive) | – | 95.7 µM (inactive) | – | > 100 µM (inactive) | 40.4 µM (inactive) | 31.5 µM (inactive) | > 100 µM (inactive) | – | > 100 µM (inactive) | 31.3 µM (inactive) | 55.2 µM (inactive)
CC1(C)CC(=O)C(CC2C(=O)CCCC2=O)C(=O)C1 | > 100 µM (inactive) | > 100 µM (inactive) | > 100 µM (inactive) | > 100 | > 100 µM (inactive) | – | > 100 µM (inactive) | > 100 µM (inactive) | > 100 µM (inactive) | – | > 100 µM (inactive) | – | > 100 µM (inactive) | > 100 µM (inactive) | > 100 µM (inactive) | > 100 µM (inactive) | – | > 100 µM (inactive) | > 100 µM (inactive) | > 100 µM (inactive)
CN1N=C(Nc2ccccc2)Sc2c1cnn(-c1ccccc1)c2=O | > 100 µM (inactive) | 30.4 µM (inactive) | > 100 µM (inactive) | > 100 | 85.7 µM (inactive) | – | > 100 µM (inactive) | 79.8 µM (inactive) | > 100 µM (inactive) | – | 66.1 µM (inactive) | – | 73.3 µM (inactive) | > 100 µM (inactive) | > 100 µM (inactive) | 96.4 µM (inactive) | – | > 100 µM (inactive) | > 100 µM (inactive) | 40 µM (inactive)
CCC(C)SC1SCC2C(=O)N(C)C3(CC3C)C(=O)OCC(NC(=O)c3nc4ccccc4cc3O)C(=O)NC(C)C(=O)N(C)C1C(=O)N(C)C1(CC1C)C(=O)OCC(NC(=O)c1nc3ccccc3cc1O)C(=O)NC(C)C(=O)N2C (stereo not drawn) | 0.00015 µM (active) | 0.000107 µM (active) | – | 0.00204 | 9.29e-05 µM (active) | 5.24e-05 µM (active) | – | 3.1e-05 µM (active) | 3.3e-05 µM (active) | 4.97e-05 µM (active) | 3.25e-05 µM (active) | 0.0331 µM (active) | 9.91e-05 µM (active) | 4.79e-05 µM (active) | 4.99e-05 µM (active) | 4.79e-05 µM (active) | 0.000219 µM (active) | – | 3.18e-05 µM (active) | 1.55e-05 µM (active)
Cn1cnc(S[C@H]2[C@H]3C(=O)C=C4S[C@H]5C[C@]42C2=C(N5)C(=O)c4[nH]cc5c4C2=[N+]3CC5)c1C[C@H](N)C(=O)O | 20.4 µM (inactive) | 2.52 µM (inactive) | 3.7 µM (inactive) | 30.8 | 15.3 µM (inactive) | – | 16.7 µM (inactive) | 14.1 µM (inactive) | 8.73 µM (inactive) | – | 10.7 µM (inactive) | – | 15.8 µM (inactive) | 16.5 µM (inactive) | 3.56 µM (inactive) | 17.6 µM (inactive) | – | 38.3 µM (inactive) | 17.2 µM (inactive) | 15.7 µM (inactive)
COc1cccc(-c2cc(=O)c3cc(C)c(C)c(C(=O)O)c3o2)c1 | > 100 µM (inactive) | > 100 µM (inactive) | > 100 µM (inactive) | > 100 | > 100 µM (inactive) | – | > 100 µM (inactive) | > 100 µM (inactive) | > 100 µM (inactive) | – | > 100 µM (inactive) | – | > 100 µM (inactive) | > 100 µM (inactive) | > 100 µM (inactive) | > 100 µM (inactive) | – | > 100 µM (inactive) | > 100 µM (inactive) | > 100 µM (inactive)
